According to patent publication US9815792B2, “Method for producing carboxamides” (BAYER CROPSCIENCE AKTIENGESELLSCHAFT, priority 2014, dated 2017):
Like-named read-outs stand apart in the source and are kept apart here.

Columns and labels:
[1] = Determination of log P values by HPLC on reversed-phase column (C18); format: physicochemical
Protocol: Unless indicated otherwise, the following method was used to determine the log P values and masses: The determination of the given log P values was carried out in accordance with EEC Directive 79/831 Annex V.A8 by HPLC (High Performance Liquid Chromatography) on a reversed-phase column (C18). […] Mass detection is effected by means of an Agilend MSD system.

Cooperia curticei = Cooperia curticei test (COOPCU); format: in vivo; settings: 20 ppm, nematode larvae, after 5 days
Protocol: Cooperia curticei test (COOPCU)
(§1) Solvent: dimethyl sulphoxide
(§2) To produce a suitable preparation of active compound, 10 mg of active compound are mixed with 0.5 ml of dimethyl sulphoxide and the concentrate is diluted with “Ringer's solution” to the desired concentration.
Vessels containing the active compound preparation of the desired concentration are populated with about 40 nematode larvae (Cooperia curticei).
(§3) After 5 days, the kill in % is determined. 100% means that all the larvae has been killed; 0% means that none of the larvae has been killed.

Haemonchus contortus = Haemonchus contortus test (HAEMCO); format: in vivo; settings: 20 ppm, larvae of the red stomach worm, after 5 days
Protocol: Haemonchus contortus—test (HAEMCO)
as §1, §2
Vessels containing the active compound preparation of the desired concentration are populated with about 40 larvae of the red stomach worm (Haemonchus contortus).
as §3

Meloidogyne incognita = Meloidogyne incognita test (MELGIN); format: in vivo; settings: 20 ppm, lettuce, after 14 days
Protocol: Meloidogyne incognita test (MELGIN)
Solvent: 125.0 parts by weight of acetone
To produce a suitable active compound formulation, 1 part by weight of active compound is mixed with the stated amount of solvent and the concentrate is diluted with water to the desired concentration.
Vessels are filled with sand, active compound solution, an egg/larvae suspension of the southern root-knot nematode (Meloidogyne incognita) and lettuce seeds. The lettuce seeds germinate and the plants develop. The galls develop on the roots.
After 14 days, the nematicidal efficacy in % is determined by the formation of galls. 100% means that no galls were found; 0% means that the number of galls on the treated plants corresponds to the untreated control.

Phaedon cochleariae = Phaedon cochleariae spray test (PHAECO); format: in vivo; settings: 500 g/ha, Chinese cabbage leaf discs, after 7 days
Protocol: Phaedon cochleariae—spray test (PHAECO) • Solvent: 78.0 parts by weight of acetone 1.5 parts by weight of dimethylformamide • Emulsifier: alkylaryl polyglycol ether
(§4) To produce a suitable preparation of active compound, 1 part by weight of active compound is dissolved using the stated parts by weight of solvent and made up with water containing an emulsifier concentration of 1000 ppm until the desired concentration is attained. To produce further test concentrations, the preparation is diluted with emulsifier-containing water.
After 7 days, the efficacy in % is determined. 100% means that all the beetle larvae have been killed; 0% means that no beetle larvae have been killed.

Boophilus microplus = Boophilus microplus injection test (BOOPMI inj); format: in vivo; settings: 20 μg/animal, injection into engorged adult female cattle ticks, assessed after 7 days
Protocol: Boophilus microplus—injection test (BOOPMI inj)
as §1
To produce a suitable preparation of active compound, 10 mg of active compound are mixed with 0.5 ml of solvent and the concentrate is diluted with solvent to the desired concentration.
1 μl of the active compound solution is injected into the abdomen of 5 engorged adult female cattle ticks (Boophilus microplus). The animals are transferred into dishes and kept in a climate-controlled room.
Efficacy is assessed after 7 days by laying of fertile eggs. Eggs which are not visibly fertile are stored in a climate-controlled cabinet until the larvae hatch after about 42 days. An efficacy of 100% means that none of the ticks has laid any fertile eggs; 0% means that all the eggs are fertile.

Tetranychus urticae = Tetranychus urticae spray test, OP-resistant (TETRUR); format: in vivo; settings: 500 g/ha, bean leaf discs, after 6 days
Protocol: Tetranychus urticae—spray test, OP-resistant (TETRUR) • Solvent: 78.0 parts by weight of acetone 1.5 parts by weight of dimethylformamide • Emulsifier: alkylaryl polyglycol ether
as §4
Discs of bean leaves (Phaseolus vulgaris) infested by all stages of the greenhouse red spider mite (Tetranychus urticae) are sprayed with an active compound formulation of the desired concentration.
After 6 days, the efficacy in % is determined. 100% means that all the spider mites have been killed; 0% means that no spider mites have been killed.

[2] = formic acid method, read-out: log P(HCOOH)
[3] = neutral, read-out: log P(neutral)

Row | chromatographic logP [1, 2] | chromatographic logP [1, 3] | SMILES | efficacy (kill in %) (Haemonchus contortus) [%] | also measured
1 | 0.09 | 0.89 | Nc1cnn(-c2c(F)cccc2F)c1 [1-(2,6-Difluorophenyl)-1H-pyrazole-4-amine] |  | 
2 | 2.14 | 2.13 | Nc1cnn(-c2c(F)cccc2F)c1C(F)(F)F [1-(2,6-Difluorophenyl)-5-(trifluoromethyl)-1H-pyrazole-4-amine] |  | 
3 | 2.1 | 0.13 | O=C(O)c1cnn(-c2c(F)cccc2F)c1C(F)(F)F [1-(2,6-Difluorophenyl)-5-(trifluoromethyl)-1H-pyrazole-4-carboxylic acid] |  | 
4 | 2.74 | 2.72 | O=[N+]([O-])c1cnn(-c2c(F)cc(Cl)cc2F)c1 [1-(4-Chloro-2,6-difluorophenyl)-4-nitro-1H-pyrazole] |  | 
5 | 2.36 | 2.34 | Fc1cc(Cl)cc(F)c1-n1cccn1 [1-(4-chloro-2,6-difluorophenyl)pyrazole] |  | 
6 | 2.35 | 2.35 | Nc1cnn(-c2c(F)cc(F)cc2F)c1C(F)(F)F [5-(Trifluoromethyl)-1-(2,4,6-trifluorophenyl)-1H-pyrazole-4-amine] |  | 
7 | 2.08 | 2.14 | Nc1cnn(-c2c(F)cc(Cl)cc2F)c1Cl [5-Chloro-1-(4-chloro-2,6-difluorophenyl)-1H-pyrazole-4-amine] |  | 
8 | 0.15 | 1.44 | NNc1c(F)cc(Cl)cc1F [(4-chloro-2,6-difluorophenyl)hydrazine] |  | 
9 | 3.56 | 3.52 | CCOC(=O)c1cnn(-c2c(F)cccc2F)c1C(F)(F)F [Ethyl 1-(2,6-difluorophenyl)-5-(trifluoromethyl)-1H-pyrazole-4-carboxylate] |  | 
10 |  |  | O=C(Nc1cnn(-c2ccccc2F)c1)c1ccccc1I [I-1-7] | 90 | efficacy (kill in %) (Cooperia curticei): 90%; nematicidal efficacy (formation of galls) (Meloidogyne incognita): 90%; efficacy (beetle larvae killed) (Phaedon cochleariae): 83%
11 |  |  | O=C(Nc1cnn(-c2ccccc2F)c1)c1ccccc1C(F)(F)F [I-1-8] | 100 | efficacy (kill in %) (Cooperia curticei): 100%; nematicidal efficacy (formation of galls) (Meloidogyne incognita): 90%
12 |  |  | O=C(Nc1cnn(-c2ncccc2F)c1)c1ccccc1C(F)(F)F [I-1-10] | 90 | efficacy (laying of fertile eggs) (Boophilus microplus): 100%; nematicidal efficacy (formation of galls) (Meloidogyne incognita): 90%
13 |  |  | O=C(Nc1cnn(-c2ncccc2F)c1)c1ccccc1Br [I-1-16] |  | nematicidal efficacy (formation of galls) (Meloidogyne incognita): 90%
14 |  |  | O=C(Nc1cnn(-c2ncccc2F)c1)c1ccccc1Cl [I-1-17] |  | nematicidal efficacy (formation of galls) (Meloidogyne incognita): 100%
15 |  |  | O=C(Nc1cnn(-c2ncccc2F)c1)c1c(F)cccc1C(F)(F)F [I-1-18] | 80 | 
16 |  |  | O=C(Nc1cnn(-c2ncccc2Cl)c1)c1ccccc1I [I-1-22] | 100 | 
17 |  |  | O=C(Nc1cnn(-c2ncccc2Cl)c1)c1ccccc1Cl [I-1-23] | 90 | nematicidal efficacy (formation of galls) (Meloidogyne incognita): 90%; efficacy (beetle larvae killed) (Phaedon cochleariae): 100%
18 |  |  | O=C(Nc1cnn(-c2ncccc2Cl)c1)c1ccccc1C(F)(F)F [I-1-24] | 100 | efficacy (kill in %) (Cooperia curticei): 90%

Row | chromatographic logP [1, 2] | chromatographic logP [1, 3] | SMILES | efficacy (kill in %) (Haemonchus contortus) [%] | also measured
19 |  |  | O=C(Nc1cnn(-c2ncccc2Cl)c1)c1c(F)cccc1C(F)(F)F [I-1-25] | 100 | efficacy (kill in %) (Cooperia curticei): 90%
20 |  |  | O=C(Nc1cnn(-c2ncccc2Cl)c1)c1ccccc1Br [I-1-26] | 100 | 
21 |  |  | O=C(Nc1cnn(-c2ncccc2Br)c1)c1ccccc1C(F)(F)F [I-1-29] |  | efficacy (kill in %) (Cooperia curticei): 80%
22 |  |  | O=C(Nc1cnn(-c2ncccc2Br)c1)c1ccccc1Cl [I-1-30] |  | efficacy (beetle larvae killed) (Phaedon cochleariae): 83%
23 |  |  | O=C(Nc1cnn(-c2ncccc2Br)c1)c1c(F)cccc1F [I-1-31] |  | efficacy (beetle larvae killed) (Phaedon cochleariae): 100%
24 |  |  | O=C(Nc1cnn(-c2cc(F)cnc2F)c1)c1ccccc1I [I-1-33] |  | efficacy (kill in %) (Cooperia curticei): 80%
25 |  |  | O=C(Nc1cnn(-c2cnc(F)c(F)c2)c1)c1c(F)cccc1C(F)(F)F [I-1-36] |  | efficacy (kill in %) (Cooperia curticei): 100%
26 |  |  | O=C(Nc1cnn(-c2c(F)cccc2F)c1)c1ccccc1Br [I-1-40] | 90 | efficacy (kill in %) (Cooperia curticei): 80%
27 |  |  | O=C(Nc1cnn(-c2c(F)cccc2F)c1)c1ccccc1Cl [I-1-41] |  | efficacy (beetle larvae killed) (Phaedon cochleariae): 100%
28 |  |  | O=C(Nc1cnn(-c2c(F)cccc2F)c1)c1c(F)cccc1C(F)(F)F [I-1-42] | 100 | efficacy (kill in %) (Cooperia curticei): 80%
29 |  |  | O=C(Nc1cnn(-c2c(F)cc(Cl)cc2F)c1Cl)c1ccccc1I [I-1-44] |  | efficacy (spider mites killed) (Tetranychus urticae): 95%
30 | 2.37 | 2.33 | N#Cc1cccc(F)c1-n1cc(NC(=O)c2ccccc2C(F)(F)F)cn1 [I-1-52, N-[1-(2-Cyano-6-fluorophenyl)-1H-pyrazol-4-yl]-2-(trifluoromethyl)benzamide] |  | 
31 |  |  | O=C(Nc1cnn(-c2c(F)cccc2C(F)(F)F)c1)c1ccccc1C(F)(F)F [I-1-53] |  | efficacy (kill in %) (Cooperia curticei): 100%
32 |  |  | O=C(Nc1cnn(-c2c(F)cccc2F)c1)c1cccnc1C(F)(F)F [I-1-58] | 80 | 
33 |  |  | O=C(Nc1cnn(-c2c(F)cccc2Cl)c1)c1ccccc1C(F)(F)F [I-1-60] |  | nematicidal efficacy (formation of galls) (Meloidogyne incognita): 90%
34 |  |  | N#Cc1cccc(C#N)c1-n1cc(NC(=O)c2ccccc2C(F)(F)F)cn1 [I-1-68] |  | nematicidal efficacy (formation of galls) (Meloidogyne incognita): 100%
35 | 1.21 | 1.22 | O=C(Nc1cn[nH]c1)c1ccccc1C(F)(F)F [N-(1H-Pyrazol-4-yl)-2-(trifluoromethyl)benzamide] |  | 
36 | 3.61 | 3.58 | CC(C)(C)OC(=O)Nc1cnn(-c2c(F)cccc2F)c1C(F)(F)F [tert-Butyl [1-(2,6-difluorophenyl)-5-(trifluoromethyl)-1H-pyrazol-4-yl]carbamate] |  | 

Row | SMILES | chromatographic logP [1, 2] | chromatographic logP [1, 3] | efficacy (kill in %) (Haemonchus contortus) [%] | also measured
37 | O=C(Nc1cnn(-c2c(F)cccc2F)c1)c1ccccc1C(F)(F)F [I-1-9, N-[1-(2,6-Difluorophenyl)-1H-pyrazol-4-yl]-2-(trifluoromethyl)benzamide] | 2.45 | 2.36 | 100 | efficacy (kill in %) (Cooperia curticei): 100%; nematicidal efficacy (formation of galls) (Meloidogyne incognita): 100%
